Data taken from the supplement of paper PMC10307832.

Key:
Test in all cases: relative viability (nuclei count vs DMSO), 5 days (fraction); higher = more cells survive
Metformin + Tozasertib = compound: CN(C)C(=N)NC(=N)N [Metformin] + Cc1cc(Nc2cc(N3CCN(C)CC3)nc(Sc3ccc(NC(=O)C4CC4)cc3)n2)n[nH]1 [Tozasertib] (partner 0.1 µM)
Procedure, shortened: (§1)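 Lung cancer cell lines were seeded in 1536-well plates and dosed by pin tool the next day, with either a single drug or a fixed anchor-drug dose combined with five library-drug doses (not always all listed) spaced in √10 steps. Five days later, one step fixed the cells and stained their nuclei (final 0.05% Triton X-100, 1% formaldehyde, 1 ug/ml Hoechst), and nuclei were counted on 4× images. Relative viability is the nuclei count in treated wells divided by the count in vehicle wells, and each value is the median of duplicate plates.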

Metformin + OSI-027 = compound: CN(C)C(=N)NC(=N)N [Metformin] + COc1cccc2cc(-c3nc([C@H]4CC[C@H](C(=O)O)CC4)n4ncnc(N)c34)[nH]c12 [OSI-027] (partner 0.5 µM)
Procedure, shortened: as §1

Apatinib + Alpelisib = compound: N#CC1(c2ccc(NC(=O)c3cccnc3NCc3ccncc3)cc2)CCCC1 [Apatinib] + Cc1nc(NC(=O)N2CCC[C@H]2C(N)=O)sc1-c1ccnc(C(C)(C)C(F)(F)F)c1 [Alpelisib] (partner 2 µM)
Procedure, shortened: as §1

Metformin + AZD7762 = compound: CN(C)C(=N)NC(=N)N [Metformin] + NC(=O)Nc1cc(-c2cccc(F)c2)sc1C(=O)N[C@H]1CCCNC1 [AZD7762] (partner 0.2 µM)
Procedure, shortened: as §1

Cell Line | relative viability (Metformin + Tozasertib; first compound 10 µM) | relative viability (Metformin + Tozasertib; first compound 31.62 µM) | relative viability (Metformin + Tozasertib; first compound 100 µM) | relative viability (Metformin + Tozasertib; first compound 316.23 µM) | relative viability (Metformin + Tozasertib; first compound 1000 µM) | relative viability (Metformin + OSI-027; first compound 10 µM) | relative viability (Metformin + OSI-027; first compound 31.62 µM) | relative viability (Metformin + OSI-027; first compound 100 µM) | relative viability (Metformin + OSI-027; first compound 316.23 µM) | relative viability (Metformin + OSI-027; first compound 1000 µM) | relative viability (Apatinib + Alpelisib; first compound 0.08 µM) | relative viability (Apatinib + Alpelisib; first compound 0.253 µM) | relative viability (Apatinib + Alpelisib; first compound 0.8 µM) | relative viability (Apatinib + Alpelisib; first compound 2.53 µM) | relative viability (Apatinib + Alpelisib; first compound 8 µM) | relative viability (Metformin + AZD7762; first compound 10 µM) | relative viability (Metformin + AZD7762; first compound 31.62 µM) | relative viability (Metformin + AZD7762; first compound 100 µM) | relative viability (Metformin + AZD7762; first compound 316.23 µM) | relative viability (Metformin + AZD7762; first compound 1000 µM)
NCI-H650 | 0.831 | 0.8 | 0.973 | 0.48 | 0.919 | 0.517 | 0.549 | 0.535 | 0.584 | 0.607 | 1.23 | 1.25 | 1.04 | 1.03 | 0.987 | 1.03 | 1.22 | 0.896 | 0.835 | 1.18
NCI-H2126 | 0.764 | 0.834 | 0.824 | 0.525 | 0.53 | 0.682 | 0.725 | 0.8 | 0.787 | 0.656 | 0.818 | 0.761 | 0.758 | 0.743 | 0.767 | 0.953 | 0.963 | 0.916 | 0.92 | 0.935
NCI-H1395 | 0.727 | 0.752 | 0.867 | 0.83 | 0.738 | 0.74 | 0.899 | 0.669 | 0.693 | 0.75 | 1.23 | 1.16 | 1.06 | 1.18 | 0.931 | 0.415 | 0.389 | 0.41 | 0.428 | 0.41
NCI-H1792 | – | – | – | – | – | – | 0.91 | 0.909 | 0.697 | 0.678 | 0.794 | 0.743 | 0.68 | 0.641 | 0.553 | 0.598 | 0.667 | 0.539 | 0.56 | 0.796
COR-L23 | 0.183 | 0.193 | 0.187 | 0.164 | 0.176 | 0.644 | 0.68 | 0.571 | 0.605 | 0.782 | 0.966 | 0.743 | 0.772 | 0.774 | 0.652 | – | – | – | – | –
NCI-H1563 | – | – | – | – | – | 0.742 | 0.797 | 0.778 | 0.722 | 0.866 | 0.967 | 0.982 | 0.929 | 0.93 | 0.804 | – | – | – | – | –
UMC-11 | 0.211 | 0.188 | 0.202 | 0.2 | 0.209 | 0.594 | 0.549 | 0.539 | 0.426 | 0.505 | 1.05 | 0.834 | 0.848 | 0.959 | 0.885 | – | – | – | – | –
SK-LU-1 | 0.263 | 0.311 | 0.272 | 0.263 | 0.307 | 0.32 | 0.389 | 0.354 | 0.318 | 0.299 | 1.15 | 1.15 | 0.979 | 0.906 | 0.692 | – | – | – | – | –
NCI-H1703 | – | – | – | – | – | – | – | – | – | – | 0.289 | 0.252 | 0.25 | 0.175 | 0.17 | 0.138 | 0.139 | 0.135 | 0.112 | 0.132
COR-L 105 | 0.355 | 0.336 | 0.37 | 0.307 | 0.321 | 0.736 | 0.895 | 0.736 | 0.773 | 0.521 | 1.01 | 1.23 | 0.82 | 0.921 | 0.731 | – | – | – | – | –
NCI-H1650 | 0.433 | 0.443 | 0.496 | 0.442 | 0.364 | 0.887 | 0.889 | 0.837 | 0.771 | 0.38 | – | – | – | – | – | – | – | – | – | –
